These are literature values, as cited in US5763457A, “Method for treating anxiety” (Eli Lilly and Company, priority 1996, dated 1998).

One data set relates to 5-HT1A receptor. As to conditions: literature; cited from earlier work.
Another data set deals with dopamine receptors. As to conditions: literature; cited from earlier work.
A further data set concerns M2 -sites. The conditions noted are these: cited from earlier work.
Another data set has as its system M1 -sites. As to conditions: cited from earlier work.

SMILES strings stand for the structures.

On to `O=C1CC2(CCCC2)CC(=O)N1CCCCN1CCN(c2ncccn2)CC1` [Buspirone], for which the receptor interaction entry in the data set on 5-HT1A receptor was “interacts with reasonable potency only at the 5-HT1A and dopamine receptors”; in the data set with dopamine receptors, “interacts with reasonable potency only at the 5-HT1A and dopamine receptors”.
Turning to `CN1CCN(CC(=O)N2c3ccccc3C(=O)Nc3cccnc32)CC1` [pirenzepine, pirenzepine, [N-methyl-^3 H]], the “interaction with M2 -sites” value in the data set with M2 -sites is given as “also interact with M2 -sites”. The selectivity entry in the data set with M1 -sites is reported as “selective for M1 -sites”.
